“Also recorded” adds a separate entry of the source. Structures can show the parent of a compound that is named as a salt. Each block holds one compound with its values, some of them ahead of it.
How the values were obtained:
[1] = tested on: RERF-LC-AI^IVP human lung tumor cells; assay: Nude mouse xenograft, tumor growth; format: in vivo; settings: 5 times per week, 15 doses
Protocol: The human squamous non-small cell lung cancer cell line, RERF-LC-AI (RCB0444; S. Kyoizumi, et al., Cancer. Res. 45:3274-3281, 1985), was obtained from the Riken Cell Bank (Tsukuba, Ibaraki, Japan). The cell line was cultured in growth media prepared from 50% Dulbecco's Modified Eagle Medium (high glucose), 50% RPMI Media 1640, 10% fetal bovine serum (FBS), 1% 100× L-glutamine, 1% 100× penicillin-streptomycin, 1% 100× sodium pyruvate and 1% 100×MEM non-essential amino acids. FBS was obtained from American Type Culture Collection (Manassas, Va., USA) and all other reagents were obtained from Invitrogen Corp. (Carlsbad, Calif., USA). Approximately 4-5×10(6) cells that had been cryopreserved in liquid nitrogen were rapidly thawed at 37° C. and transferred to a 175 cm^2 tissue culture flask containing 50 ml of growth media and then incubated at 37° C. in a 5% CO2 incubator.
The growth media was replaced every 2-3 days until the flask became 90% confluent, typically in 5-7 days. […] The supernatant was aspirated and the cell pellet was resuspended in 10 ml of growth media and the cell number determined using a hemocytometer. […]
Studies were conducted on animals between 8 and 12 weeks of age at implantation. […] Tumor volumes (V) were calculated by caliper measurement of the width (W), length (L) and thickness (T) of tumors using the following formula: V=0.5236×(L×W×T). […]

[2] = tested on: human NSCLC cell line HCC827; assay: SCID mouse xenograft, tumor growth (% T/C); format: in vivo; settings: for % T/C value: day 34
Protocol: FBS was obtained from ATCC and all other reagents were obtained from Invitrogen Corp. (Carlsbad, Calif., USA). Cells that had been cryopreserved in liquid nitrogen were rapidly thawed at 37° C. and transferred to a tissue culture flask containing growth media and then incubated at 37° C. in a 5% CO2 incubator. […] Cultures were passaged by washing with 10 mL of room temperature phosphate buffered saline (PBS) and then disassociating cells by adding 5 mL 1× trypsin-EDTA and incubating at 37° C. until the cells detached from the surface of the flask. To inactivate the trypsin, 5 mL of growth media was added and then the contents of the flask were centrifuged to pellet the cells. The supernatant was aspirated and the cell pellet was resuspended in 10 mL of growth media and the cell number determined using a hemocytometer. Cells were seeded into 175 cm^2 flasks containing 50 mL of growth media and incubated at 37° C. in a 5% CO2 incubator.

[3] = In vivo pharmacokinetic (drug-drug interaction) study in SCID mice, plasma by HPLC; parameters: species or system mouse; settings: for AUCINF / T½ / Cmax: plasma; for Cmax: female, CB17/Icr-Prkdc^scid/Crl (SCID), mouse
Text: Six to eight week old, female CB17/Icr-Prkdc^scid/Crl (SCID) mice were obtained from Charles River Laboratories (Wilmington, Mass., USA). Animals were housed 4-5/cage in micro-isolators, with a 12 hr/12 hr light/dark cycle, acclimated for at least 1 week prior to use and fed normal laboratory chow ad libitum.

[4] = Body weight change in nude mouse xenograft study; format: in vivo; settings: 200 mg/kg body weight i.p., 5 times per week, 15 doses, tumor-bearing nude mice
Protocol: The Hsp90 inhibitor, 17-allylamino-17-demethoxygeldanamycin (17-AAG), was employed as a positive control (Albany Molecular Research, Albany, N.Y., USA). […] Animals were intraperitoneally (i.p.) injected with this solution at 10 ml per kg body weight on a schedule of 5 days per week (Monday, Tuesday, Wednesday, Thursday and Friday, with no dosing on Saturday and Sunday) for a total of 15 doses.

JAK2 mutant JAK2V617F = JAK2 mutant JAK2V617F (Homo sapiens, UniProt O60674, V617F); settings: cited from earlier work
Chain of JAK2 mutant JAK2V617F (O60674 whole entry V617F): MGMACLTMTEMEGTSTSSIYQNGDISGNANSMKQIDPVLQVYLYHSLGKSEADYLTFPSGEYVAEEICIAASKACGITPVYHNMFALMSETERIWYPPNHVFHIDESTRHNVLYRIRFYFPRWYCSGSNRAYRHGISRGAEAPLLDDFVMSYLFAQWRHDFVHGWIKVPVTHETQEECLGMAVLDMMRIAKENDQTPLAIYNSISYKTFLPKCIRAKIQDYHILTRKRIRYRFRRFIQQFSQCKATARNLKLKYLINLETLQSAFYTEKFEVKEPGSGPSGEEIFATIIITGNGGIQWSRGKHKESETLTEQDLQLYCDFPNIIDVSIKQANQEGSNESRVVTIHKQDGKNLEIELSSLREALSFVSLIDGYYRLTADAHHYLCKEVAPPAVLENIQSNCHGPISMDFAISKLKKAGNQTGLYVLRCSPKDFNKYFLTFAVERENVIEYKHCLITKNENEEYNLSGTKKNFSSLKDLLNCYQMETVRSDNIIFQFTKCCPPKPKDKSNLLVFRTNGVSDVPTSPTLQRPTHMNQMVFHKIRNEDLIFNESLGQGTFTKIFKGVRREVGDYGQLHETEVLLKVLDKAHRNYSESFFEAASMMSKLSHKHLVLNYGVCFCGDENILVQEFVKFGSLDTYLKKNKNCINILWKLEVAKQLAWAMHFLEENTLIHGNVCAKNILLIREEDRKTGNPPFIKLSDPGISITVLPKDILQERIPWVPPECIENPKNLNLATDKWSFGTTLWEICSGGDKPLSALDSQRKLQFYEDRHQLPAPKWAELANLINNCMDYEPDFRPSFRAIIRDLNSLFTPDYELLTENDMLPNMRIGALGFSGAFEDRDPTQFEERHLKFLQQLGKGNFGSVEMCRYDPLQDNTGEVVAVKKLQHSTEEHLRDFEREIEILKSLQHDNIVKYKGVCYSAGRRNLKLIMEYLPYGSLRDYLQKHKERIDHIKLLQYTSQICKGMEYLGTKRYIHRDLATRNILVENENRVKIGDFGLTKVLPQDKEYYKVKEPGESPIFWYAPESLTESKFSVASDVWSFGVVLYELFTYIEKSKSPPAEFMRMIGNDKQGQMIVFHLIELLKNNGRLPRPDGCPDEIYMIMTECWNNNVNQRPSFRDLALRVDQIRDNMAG

[5] = 50 mg/kg Compound 1 plus 25 mg/kg erlotinib HCl, SCID mice
[6] = analyte Compound 1, Compound 1 50 mg/kg + erlotinib HCl 25 mg/kg, single dose
[7] = analyte Compound 1, Compound 1 50 mg/kg alone, single i.v. dose
[8] = analyte erlotinib HCl, erlotinib HCl 25 mg/kg + Compound 1 50 mg/kg, single dose
[9] = analyte erlotinib HCl, erlotinib HCl 25 mg/kg alone, single dose

SMILES: C=CCNC1=C2C[C@@H](C)C[C@H](OC)[C@H](O)[C@@H](C)/C=C(\C)[C@H](OC(N)=O)[C@@H](OC)/C=C\C=C(/C)C(=O)NC(=CC1=O)C2=O [Compound 17-AAG, 17-allylamino-17-demethoxygeldanamycin, reference compound]
growth rate of RERF-LC-AI^IVP human lung tumor cells in nude mice ([1]; 75 mg/kg body weight i.p.): inhibited tumor growth; also recorded: decreased the growth rate

AUCINF [3, 6]: 36.0 μMXHR
T½ [3, 6]: 4.5 h
AUCINF [3, 7]: 38.5 μMXHR
T½ [3, 7]: 4.7 h
Cmax ([3]; iv, 50 mg/kg, analyte Compound 1, Compound 1 50 mg/kg + erlotinib HCl 25 mg/kg, single dose): 93.4 µM
Cmax ([3]; iv, 50 mg/kg, analyte Compound 1, Compound 1 50 mg/kg alone, single i.v. dose): 118 µM
SMILES: CC(C)c1cc(-c2nnc(O)n2-c2ccc3c(ccn3C)c2)c(O)cc1O [Compound 1, 3-(2,4-DIHYDROXY-5- ISOPROPYL-PHENYL)-4-(1- METHYL-INDOL-5-YL)-5- HYDROXY-[1,2,4]TRIAZOLE]
HCC827 tumor growth in SCID mice ([2]; Compound 1 50 mg/kg i.v. once per week, 3 doses, 50 mg/kg): moderately inhibited HCC827 tumor growth
% T/C value ([2]; Compound 1 50 mg/kg i.v. once per week): 15%
effect of erlotinib HCl on plasma half-life, Cmax and total plasma exposure (AUCinf) of Compound 1 [3, 5]: no significant effect; also recorded: did not affect

SMILES: CCc1cc(-c2nnc(S)n2-c2ccc(OC)c3c2ccn3C(C)C)c(O)cc1O [Compound 26, 3-(2,4-DIHYDROXY-5-ETHYL- PHENYL)-4-(1-ISOPROPYL-7- METHOXY-INDOL-4-YL)-5- MERCAPTO[1,2,4]TRIAZOLE]
growth rate of RERF-LC-AI^IVP human lung tumor cells in nude mice ([1]; 200 mg/kg body weight i.p.): inhibited tumor growth; also recorded: decreased the growth rate
overt toxicity (effect on body weights) [4]: not associated with overt toxicity; also recorded: not overtly toxic

effect of Compound 1 on plasma half-life, Cmax and total plasma exposure (AUCinf) of erlotinib HCl [3, 5]: little or no effect
effect of Compound 1 on plasma half-life, Cmax and total plasma exposure (AUCinf) of erlotinib HCl ([3]; 50 mg/kg Compound 1 plus 25 mg/kg erlotinib HCl, SCID mice, listed as erlotinib): little effect
AUCINF [3, 8]: 39.0 μMXHR
T½ [3, 8]: 2.8 h
AUCINF [3, 9]: 28.1 μMXHR
T½ [3, 9]: 1.7 h
increase in total plasma exposure of erlotinib HCl ([3]; combination with Compound 1 versus erlotinib HCl alone): 39%
Cmax ([3]; intravenous, 25 mg/kg, analyte erlotinib HCl, erlotinib HCl 25 mg/kg + Compound 1 50 mg/kg, single dose): 4.94 µM
Cmax ([3]; intravenous, 25 mg/kg, analyte erlotinib HCl, erlotinib HCl 25 mg/kg alone, single dose): 4.11 µM
SMILES: C#Cc1cccc(Nc2ncnc3cc(OCCOC)c(OCCOC)cc23)c1 [erlotinib HCl]
% T/C value ([2]; erlotinib HCl 25 mg/kg p.o. once per week): 23%
inhibition of JAK2V617F (JAK2 mutant JAK2V617F): potently inhibits
